What was measured:
NKT cells [1] = conditions: cited from earlier work
NKT cells [2] = conditions: cited from earlier work; remark: listed apart in the source
NKT cells [3] = conditions: cited from earlier work; remark: listed apart in the source
NKT cells [4] = conditions: cited from earlier work; remark: listed apart in the source
NKT cells of mouse = conditions: cited from earlier work
human NKT cells = conditions: cited from earlier work
NKT cells [5] = assay: Influence of synthetic glycolipid on cytokine production of NKT cells: IFN-γ in mouse plasma after tail vein administration; format: in vivo, C57BL/6 mice; conditions: 100 μg/kg body weight, Cytometric Bead Array, data in FIG. 1-3
Protocol: A solution of each of α-GalCer (KRN7000), compound F and compound H in dimethyl sulfoxide (DMSO) was prepared at a concentration of 1 mg/mL. The above-mentioned DMSO solution was diluted with saline (manufactured by Otsuka Pharmaceutical Co., Ltd.) containing 0.5% tween 20 (Bio-Rad) such that the dose became 100 μg/kg body weight when 200 μL per mouse was administered from the tail vein.
The prepared solutions (200 μL) of compounds F and H were respectively injected to C57BL/6 mice (5 mice per group) from the tail vein. As a control substance, α-GalCer (KRN7000) was used, and a solution (200 μL) of α-GalCer (KRN7000) prepared in the same manner such that the dose became 100 μg/kg body weight was injected into the tail vein. The group administered with saline (200 μL) containing 0.5% tween 20 (medium) was used as a negative control. The blood (80 μL) immediately before administration and after administration (after lapse of the time indicated in FIGS. 1-3) was collected from the orbital sinus and plasma was prepared.
The IFN-γ content of the plasma before administration and after administration (after lapse of the time indicated in FIG. 1) was measured by Cytometric Bead Array system (BD Biosciences) which is one of the ELISA methods. The measurement results (mean) of the production amount of IFN-γ and the standard deviation thereof (STDEV) are shown in FIG. 1.

NKT cells [6] = conditions: cited from earlier work; remark: listed apart in the source

CCCCCCCCCCCCCCCCCCCCCCCCCC(=O)N[C@@H](COC1CC(CO)C(O)C(O)C1O)[C@H](O)[C@H](O)CCCCCCCCCCCCCC (some centres unmarked) [RCAI-56]
NKT cell activation / IFN-γ production (NKT cells [1]): strongly activates NKT cells and induces production of a large amount of IFN-γ
activity in the system of mouse (NKT cells [2]): strong activity
activity in the system of human (in vitro) (NKT cells [3]): strong activity

CCCCCCCCCCCCCCCCCCCCCCCCC(F)(F)C(=O)N[C@@H](COC1OC(CO)C(O)C(O)C1O)[C@H](O)[C@H](O)CCCCCCCCCCCCCC (some centres unmarked) [compound 6]
type of cytokine production induced (NKT cells [4]): induce production of mostly Th2 type cytokines such as IL-4

CCCCCCCCCCCCCCCCCCCCCCCCCC(=O)N[C@@H](CCC1OC(CO)C(O)C(O)C1O)[C@H](O)[C@H](O)CCCCCCCCCCCCCC (stereo partly drawn) [α-C-GalCer]
activation of mouse NKT cells and IFN-γ production (NKT cells of mouse): strongly activates NKT cells of mouse and preferentially produces IFN-γ
activity in vitro on human NKT cells (human NKT cells): hardly shows activity

CCCCCCCCCCCCCCCCCCCCCCCCCC(=O)N[C@@H](COC1OC(COC)C(O)C(O)C1O)[C@H](O)[C@H](O)CCCCCCCCCCCCCC (some centres unmarked) [RCAI-61]
NKT cell activation / IFN-γ production (NKT cells [1]): induces production of IFN-γ in large amounts
activity in the system of mouse (NKT cells [2]): strong activity
activity in the system of human (in vitro) (NKT cells [3]): strong activity

CCCCCCCCCCCCCCCCCCCCCCCCc1cn([C@@H](COC2OC(CO)C(O)C(O)C2O)[C@H](O)[C@H](O)CCCCCCCCCCCCCC)nn1 (some centres unmarked) [compound 7]
type of cytokine production induced (NKT cells [4]): induce production of mostly Th2 type cytokines such as IL-4

CCCCCCCCCCCCCCCCS(=O)(=O)N[C@@H](COC1OC(CO)C(O)C(O)C1O)[C@H](O)[C@H](O)CCCCCCCCCCCCCC (some centres unmarked) [compound 5]
type of cytokine production induced (NKT cells [4]): induce production of mostly Th2 type cytokines such as IL-4

CCCCCCCCCCCCCCCCCCCCCCCCNC(=O)N[C@@H](CO[C@H]1O[C@H](CO)[C@H](O)[C@H](O)[C@H]1O)[C@H](O)[C@H](O)CCCCCCCCCCCCCC [compound F, (2S,3S,4R)-1-(α-D-galactopyranosyloxy)-2-(tetracosylureido)-3,4-octadecanediol]
IFN-γ production compared with α-GalCer (KRN7000) (NKT cells [5]): selectively induced IFN-γ production in larger amounts than α-GalCer (KRN7000)

CCCCCCCCCCCCCCCCCCCCCCCCNC(=O)N[C@@H](CO[C@H]1O[C@H](COC)[C@H](O)[C@H](O)[C@H]1O)[C@H](O)[C@H](O)CCCCCCCCCCCCCC [compound H, (2S,3S,4R)-1-(6-O-methyl-α-D-galactopyranosyloxy)-2-(tetracosylureido)-3,4-octadecanediol]
IFN-γ production compared with α-GalCer (KRN7000) (NKT cells [5]): selectively induced IFN-γ production in larger amounts than α-GalCer (KRN7000)

CCCCCCCCCCCCCCCCCCCCCCCCCC(=O)N[C@@H](COC1OC(CO)C(O)C(O)C1O)[C@H](O)[C@H](O)CCCCCCCCCCCCCC (some centres unmarked) [KRN7000]
immunostimulatory activity among synthesized analogs (NKT cells [6]): shows the strongest activity

Reference: US8853173B2, “Synthetic glycolipid and use thereof” (RIKEN, priority 2010, dated 2014)
